Reference: patent publication US20140249105A1, “NOVEL CERAMIDE ANALOGUES, PROCESSES FOR PREPARING SAME AND USES THEREOF” (Diverchim, priority 2011, published 2014)
Blank lines part the entries; values can stand above or below the compound they belong to. * marks the point of attachment. MeOSuc = COC(=O)CCC(=O)*; CH2Cl = ClC*

Key:
[1] = molecular target: T1, human leukocyte elastase (Homo sapiens, UniProt P08246); experiment: Inhibition of leukocyte elastase (EnzChek Elastase assay kit); assay type: biochemical; conditions: incubation 1 hour
T1 sequence (P08246 30-267): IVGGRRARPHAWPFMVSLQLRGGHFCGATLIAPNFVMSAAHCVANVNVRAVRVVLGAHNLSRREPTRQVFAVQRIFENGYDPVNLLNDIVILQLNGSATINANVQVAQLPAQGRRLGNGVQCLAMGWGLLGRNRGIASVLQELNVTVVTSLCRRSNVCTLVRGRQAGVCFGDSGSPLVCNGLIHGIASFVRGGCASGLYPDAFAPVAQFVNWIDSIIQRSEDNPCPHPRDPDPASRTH
Text: The elastases are a sub-family of serine proteases responsible for the degradation of elastin. The numerous natural substrates of this enzyme include, in addition to elastin, the proteoglycans of cartilage, fibronectin and the type I, II, III and IV collagens. At the cutaneous level, inhibition of elastase can combat the effects of ageing, whether or not photo-induced, and limit the appearance of wrinkles and stretch marks. • Biological model: human leukocyte elastase • Conditions: • Control (n=6) • Reference: AAPV (N-methoxysuccinyl-Ala-Ala-Pro-Val-chloromethyl ketone) 100 μM (n=6) • compounds tested (n=2) • Incubation: 1 hour • Assay: The activity of human leukocyte elastase was evaluated using the EnzChek® Elastase assay kit. The measurement of activity is based on the use of a fluorescent substrate (DQTM Elastin) whose fluorescence is “quenched” through the presence of “quencher” groups at the level of the lytic sites. After action of the enzyme, the “quencher” groups are released and the fluorescence emitted is proportional to the activity of the enzyme. The results are expressed in percentage inhibition of the enzyme activity.

[2] = test system: B16 melanocytes; experiment: Screening of anti-melanogenesis activity: melanin assay in B16 melanocytes stimulated with NDP-MSH; assay type: cell-based; conditions: 72 h
Experimental: This was carried out for compounds in solution in DMSO. The synthesis of melanin was measured in a model of B16 melanocytes stimulated with a stable derivative of α-MSH (natural hormone that stimulates melanogenesis: Melanocyte Stimulating Hormone): NDP-MSH ([Nle^4, DPhe7]-α-MSH).
(§1) Melanocytes were seeded on a 96-well plate and cultured for 24 h (37° C., 5% CO2, DMEM 1 g/L glucose without phenol red supplemented with glucose 3 g/L, L-glutamine 2 mM, penicillin 50 U/mL, streptomycin 50 μg/mL, fetal calf serum (FCS) 10%). […] Each experimental condition was carried out with n=3, apart from the controls carried out with n=6. The cells were then incubated for 72 h. Wells without cells received in parallel the same quantities of medium, supplemented or not with NDP-MSH and with or without the test compounds or the reference in order to quantify the background noise associated with the presence of the compounds.
At the end of 72 hours of incubation, the total melanin (intra- and extracellular) was quantified by measuring the absorbance of each sample at 405 nm (direct reading of the culture plates) against a standard range of melanin (melanin concentrations tested from 0.78 to 100 μg/mL). The background noise, measured in the wells without cells, was subtracted from the values measured so that only the effect connected with the production of melanin is taken into account, without including any interference connected with the presence of the compounds. The results were expressed in percentage of melanin relative to the control as well as in percentage inhibition.

[3] = test system: Normal human dermal fibroblasts (NHDF); experiment: Proliferation and/or migration of fibroblasts, artificial wound coverage; assay type: cell-based; conditions: percentage coverage at 24 h
Experimental: An increase in migration and proliferation of the cells allows an improvement in healing. • Biological model: Normal human dermal fibroblasts (NHDF) • Culture conditions: 37° C., 5% CO2 • Culture medium: DMEM • Conditions: • Control (NHDF in DMEM test medium 0% FCS) (n=6) • Reference: FCS (Fetal Calf Serum) at 10% (n=2) • compounds tested (n=2) • Incubation: 72 hours • Assay: Normal human fibroblasts were seeded on 96-well plates suitable for the migration studies. In these plates, the substrates were pretreated with a solution of collagen and a mask was placed at the centre of each well, preventing adhesion of the cells in this zone and thus forming an artificial wound. After labelling the cells with calcein, the masks were removed and then the cells were treated with the compounds or the reference. The migration of the cells was monitored microscopically for 72 hours, taking photographs at 0 h, 24 h, 48 h and 72 h. The results are expressed in percentage coverage and compared with the untreated control.

[4] = test system: Normal human epidermal keratinocytes (NHEK); experiment: Proliferation and/or migration of keratinocytes, artificial wound coverage; assay type: cell-based; conditions: percentage coverage at 48 h
Experimental: The phases of migration and proliferation of cells are major phases of healing that occur after the inflammation phase and are necessary for recolonization of the wound. An increase in the migration and proliferation of cells allows an improvement in healing. • Biological model: Normal human epidermal keratinocytes (NHEK) • Culture conditions: 37° C., 5% CO2 • Culture medium: Keratinocyte-SFM-PE-EGF (keratinocyte culture medium—serum free medium (SFM) without pituitary extract (PE) and without Epidermal Growth Factor (EGF) • Conditions: • Control (n=6) • Reference: EGF (Epidermal Growth Factor) at 10 ng/ml (n=2) • compounds tested (n=2) • Incubation: 72 hours • Assay: Normal human keratinocytes were seeded on 96-well plates suitable for the migration studies. In these plates, the substrates were pretreated with a solution of collagen and a mask was placed at the centre of each well, preventing adhesion of the cells in this zone and thus forming an artificial wound. After labelling the cells with calcein, the masks were removed and then the cells were treated with the compounds or the reference. The migration of the cells was monitored microscopically for 72 hours, taking photographs at 0 h, 24 h, 48 h and 72 h. The results are expressed in percentage coverage and compared with the untreated control.

[5] = test system: B16 melanocytes; experiment: Viability of the cells, test of reduction of MTT; assay type: cell-based; conditions: 72 h
Experimental: as §1
At the end of the treatment, the cells were incubated in the presence of MTT (3-(4,5-dimethylthiazol-2-yl)-2,5-diphenyl tetrazolium bromide), the conversion of which to blue crystals of formazan is proportional to the activity of succinate dehydrogenase (mitochondrial enzyme). After disruption of the cells, the formazan was dissolved in DMSO medium and the optical density (OD), representative of the number of live cells and of their metabolic reactivity, was measured with a microplate reader at 540 nm (VERSAmax, Molecular Devices).

[6] = test system: Human dermal fibroblasts aged according to the Hayflick model (P17NHDF); experiment: Proliferation of aged human dermal fibroblasts, [3H]-thymidine incorporation; assay type: cell-based; conditions: 72 hours
Experimental: Thus, stimulation of the proliferation of the aged fibroblasts makes possible a partial reversal of the deleterious effects of ageing. • Biological model: Human dermal fibroblasts aged according to the Hayflick model (fibroblasts obtained by successive subculture) (P17NHDF) • Culture conditions: 37° C., 5% CO2 • Culture medium: DMEM/fetal calf serum (FCS) 10% • Conditions: • Control (n=6) • Control normal fibroblasts, not aged (P7 NHDF) (n=2) • Reference: EGF (Epidermal Growth Factor) at 10 ng/mL (n=2) • compounds tested (n=2) • Incubation: 72 hours • Assay: The effects on proliferation were evaluated by measuring the incorporation of [^3H]-thymidine in fibroblasts aged according to the Hayflick model. The Hayflick model consists of applying successive subcultures in order to induce an “aged” phenotype. The results are expressed in percentage stimulation of the incorporation of [^3H]-thymidine.

[7] = molecular target: T2, tyrosinase (DOPA oxidase) (Homo sapiens, UniProt P14679); experiment: Screening of anti-tyrosinase activity: DOPA oxidase reaction on separated epidermis, count of DOPA positive melanocytes per mm2; assay type: cell-based
T2 construct: from tissue; host or cells: separated human epidermis from a frozen abdominoplasty (melanocytes in situ)
T2 sequence (P14679 19-529): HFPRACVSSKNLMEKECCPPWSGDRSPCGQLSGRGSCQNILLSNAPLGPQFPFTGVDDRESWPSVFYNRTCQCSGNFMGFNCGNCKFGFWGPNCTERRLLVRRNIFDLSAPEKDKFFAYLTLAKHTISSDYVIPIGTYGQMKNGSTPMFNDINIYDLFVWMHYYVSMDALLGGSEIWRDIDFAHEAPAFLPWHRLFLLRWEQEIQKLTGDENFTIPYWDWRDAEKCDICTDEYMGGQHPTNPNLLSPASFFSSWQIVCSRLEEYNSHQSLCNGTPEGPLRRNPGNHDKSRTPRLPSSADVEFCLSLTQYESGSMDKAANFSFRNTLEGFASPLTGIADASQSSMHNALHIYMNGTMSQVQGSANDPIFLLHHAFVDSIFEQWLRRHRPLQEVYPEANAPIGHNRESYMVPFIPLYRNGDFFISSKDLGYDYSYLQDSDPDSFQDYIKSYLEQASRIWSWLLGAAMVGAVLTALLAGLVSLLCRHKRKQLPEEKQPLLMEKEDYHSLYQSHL
Experimental: The products are tested in solution at 30 μg/mL in DMSO. Epidermis samples originating from a frozen abdominoplasty (person) were separated by incubation in 2N NaBr for 1.0 h at 37° C. They were then fixed in a buffered formolized fixing agent, rinsed and put in contact with the volume/volume mixture: solutions of L-DOPA/test formulation. After incubation, they were rinsed and mounted between slide and cover slip with mounting liquid of the Aquatex type. Observation was by optical microscopy with ×10 objective. Images were obtained with a tri CCD Sony DXC […] camera and stored using the Leica IM1000 data archiving software. For each batch, several microscope fields were analysed using the LEICA QWin image analysis software. For each field, the DOPA positive melanocytes were counted and the area of the zone was measured to determine the melanocyte count per mm^2.

Compound: CCCCCCCCCCCCCC(=O)NC1CCC(NC(=O)CCCCCCCCCCCCC)C1 (stereo not drawn) [c132]
% control 24 h ([3]; 10 μM): 131 % control | % control 48 h ([4]; 10 μM): 138 % control

Compound: O=C(/C=C/CCCCCOC1CCCCO1)N[C@H]1CCC[C@H]1NC(=O)/C=C/CCCCCOC1CCCCO1 (stereo partly drawn) [c27]
% control 24 h ([3]; 10 μM): 131 % control | Viability (MTT) % stimulated control ([5]; 30 μM): 89 % stimulated control | Viability (MTT) % stimulated control ([5]; 100 μM): 71 % stimulated control | inhibition at 30 µM ([2]; Melanocyte, 30 μM, read-out: Normalized data inhibition (%)): 12% | inhibition at 100 µM ([2]; Melanocyte, 100 μM, read-out: Normalized data inhibition (%)): 110%

Compound: CCCCCCCCCCC/C=C(/F)C(=O)N[C@@H]1CC[C@H](NC(=O)/C(F)=C\CCCCCCCCCCC)C1 [c85]
Stimulation (%) ([6]; 10 μM): 22% | % control 48 h ([4]; 10 μM): 176 % control

The next lines start with results.

Inhibition (%) ([1]; 30 μM): 75%
Compound: CCCCCC=CCC=CCCCCCCCC(=O)NC1CCCC1NC(=O)CCCCCCCC=CCC=CCCCCC (stereo not drawn) [c128]
Normalized data inhibition (%) ([2]; 30 μM): 9% | Normalized data inhibition (%) ([2]; 100 μM): 93%

Inhibition (%) ([1]; 100 μM): 95%
Compound: N-methoxysuccinyl-Ala-Ala-Pro-Val-chloromethyl ketone (MeOSuc-AAPV-CH2Cl) [reference compound]

Variation/control ([7]; DOPA positive melanocyte count per mm2 vs DOPA control, product at 30 μg/mL in DMSO): −55
Compound: O=C(NC1CC1NC(=O)C(F)=CCCCCCCCCCCCCCCO)C(F)=CCCCCCCCCCCCCCCO (stereo not drawn) [c42]
Stimulation (%) ([6]; 3 μM): 48% | % control 24 h ([3]; 3 μM): 130 % control | % control 48 h ([4]; 3 μM): 141 % control | effectiveness for limiting tyrosinase activity compared with reference compounds ([7]; vs ref 1): more effective than the reference compounds
